The text below walks through data of ChEMBL document CHEMBL4513161, “CO-ADD screening of MMV (CH) - Pandemic Response Box” (2021).

Assay [1] concerns HEK293. Nature of the assay: cells. The assay is classed as functional, Homo sapiens, ATCC CRL1573. Particulars: Homo sapiens, ATCC CRL1573, HEK293; ASSAY_TEST Inhibition of Cell Viability; detection method Resazurin; Fluorescence (ex560/em590); MEDIA DMEM with 10% FBS; plate type 384well; TC; CORNING #3712; time 18 hr; read-out: CC50.
Assay [2] relates to Pseudomonas aeruginosa. Kind of assay: Antibacterial activity against Pseudomonas aeruginosa PAO397 [PAO1 d(mexAB-oprM) d(mexCD-oprJ) d(mexEF-oprN) d(mexJKL) d(mexXY) d(opmH)] (CO-ADD:GN_211); MIC in CAMBH media using NBS plates, by OD(600). To be noted: ASSAY_TEST Inhibition of Bacterial Growth, detection method Absorption (OD600), MEDIA CAMHB, plate type 384well, CORNING #3640, time 18 hr. The assay is classed as functional.

In assay [3] the test system is Cryptococcus neoformans.
Description: Antifungal activity against Cryptococcus neoformans H99 ATCC 208821 (CO-ADD:FG_002); MIC in YNB media using NBS plates, by Resazurin OD(600-570)
Assay [4] relates to Staphylococcus aureus. Kind of assay: microbe, parasite or virus in culture. Particulars: ATCC 43300, 18 h, ASSAY_TEST Inhibition of Bacterial Growth, detection method Absorption (OD600), MEDIA CAMHB, plate type 384well, NBS, CORNING #3640.
Description: Antibacterial activity against Staphylococcus aureus MRSA ATCC 43300 (CO-ADD:GP_020); MIC in CAMBH media, using NBS plates, by OD(600)
Assay [5] relates to Escherichia coli. Nature of the assay: microbe, parasite or virus in culture. To be noted: ATCC 25922, 18 h, ASSAY_TEST Inhibition of Bacterial Growth, detection method Absorption (OD600), MEDIA CAMHB, plate type 384well, NBS, CORNING #3640.
Description: Antibacterial activity against Escherichia coli ATCC 25922 (CO-ADD:GN_001); MIC in CAMBH media using NBS plates, by OD(600)
Assay [6] concerns Klebsiella pneumoniae. Kind of assay: microbe, parasite or virus in culture. Particulars: ATCC 700603, 18 h, ASSAY_TEST Inhibition of Bacterial Growth, detection method Absorption (OD600), MEDIA CAMHB, plate type 384well, NBS, CORNING #3640.
Description: Antibacterial activity against Klebsiella pneumoniae MDR ATCC 70063 (CO-ADD:GN_003); MIC in CAMBH media using NBS plates, by OD(600)
In assay [7] the test system is Pseudomonas aeruginosa. Kind of assay: microbe, parasite or virus in culture. Particulars: ATCC 27853, 18 h, ASSAY_TEST Inhibition of Bacterial Growth, detection method Absorption (OD600), MEDIA CAMHB, plate type 384well, NBS, CORNING #3640.
Description: Antibacterial activity against Pseudomonas aeruginosa ATCC 27853 (CO-ADD:GN_042); MIC in CAMBH media using NBS plates, by OD(600)
In assay [8] the test system is Acinetobacter baumannii. Nature of the assay: microbe, parasite or virus in culture. To be noted: ATCC 19606, 18 h, ASSAY_TEST Inhibition of Bacterial Growth, detection method Absorption (OD600), MEDIA CAMHB, plate type 384well, NBS, CORNING #3640.
Description: Antibacterial activity against Acinetobacter baumannii ATCC 19606 (CO-ADD:GN_034); MIC in CAMBH media using NBS plates, by OD600
Assay [9] deals with Candida albicans. Kind of assay: microbe, parasite or virus in culture. To be noted: ATCC 90028, ASSAY_TEST Inhibition of Fungal Growth, detection method Absorption (OD530), plate type 384well, NBS, CORNING #3640.
Description: Antifungal activity against Candida albicans ATCC 90028 (CO-ADD:FG_001); MIC in YNB media using NBS plates, by OD630

Converted amounts (≈) assume the structure as drawn.

Turning to `O=P(O)(O)C(CCCc1cccc(Oc2ccccc2)c1)S(=O)(=O)O` (stereo not given), in assay [1], the CC50 was over 20 µM. Besides, the MIC in assay [2], in assay [3], in assay [4], in [5], in assay [6] and in assay [7] was over 20 µM each time. The MIC in assay [8] and in assay [9] was over 20 µM each time.
`CC(C)Oc1ccc(-c2nc(-c3cccc4c3CC[C@@H]4NCCO)no2)cc1C#N` [OZANIMOD]: in [1], the CC50 is over 20 µM. Besides, the MIC in assay [2], in assay [3], in assay [4], in [5], in assay [6] and in assay [7] was over 20 µM throughout. The MIC in [8] and in assay [9] was over 20 µM in each case.
In the case of `O=C(NC(=O)N1CCCc2ccccc21)c1cccc(Cl)c1`, the CC50 in [1] is over 20 µM. Moreover, the MIC in assay [2], in [3], in assay [4], in [5], in assay [6] and in [7] was over 20 µM throughout. In addition, the MIC in assay [8] and in [9] was over 20 µM throughout.
On to `CCc1nc2ccccn2c1C(=O)NCc1ccccc1`, for which the CC50 in assay [1] is over 20 µM. Also, the MIC in [2], in assay [3], in assay [4], in assay [5], in [6] and in [7] was over 20 µM each time. The MIC in [8] and in assay [9] was over 20 µM throughout.
Take `CCN1CCN(Cc2nc3ccc([N+](=O)[O-])cc3c(=O)n2-c2ccccc2F)CC1`: the CC50 in [1] was over 20 µM. The MIC in assay [2], in assay [3], in assay [4], in assay [5], in [6] and in assay [7] was over 20 µM each time. For the same compound, the MIC in [8] and in [9] was over 20 µM throughout.
As to `CC(C)n1cnc2c(NCc3ccccc3)nc(NCc3ccccc3)nc21`, the CC50 in assay [1] was over 20 µM. Moreover, the MIC in [2], in assay [3], in assay [4], in assay [5], in [6] and in [7] was over 20 µM throughout. Moreover, the MIC in assay [8] and in assay [9] was over 20 µM each time.
For `NS(=O)(=O)c1ccc(NC(=O)NC(c2ccccc2)c2ccccc2)cc1`, in assay [1], the CC50 was over 20 µM. Moreover, the MIC in assay [2], in [3], in [4], in assay [5], in [6] and in assay [7] was over 20 µM in each case. The MIC in [8] and in [9] was over 20 µM each time.
On to `COc1cc(C2C3=C(CC(C)(C)CC3=O)Nc3ccccc3N2C(C)=O)ccc1OCc1ccccc1` (stereo not given), for which the CC50 in [1] is over 20 µM. Also, the MIC in assay [2], in assay [3], in [4], in assay [5], in assay [6] and in assay [7] was over 20 µM each time. In addition, the MIC in assay [8] and in assay [9] was over 20 µM each time.
As to `CCc1ccc(C2CC(C(F)(F)F)n3ncc(C(=O)NCc4ccc(OC)cc4)c3N2)cc1` (stereo not given), the half-maximal cytotoxic concentration (CC50) in [1] was over 20 µM. In addition, the MIC in assay [2], in assay [3], in assay [4], in assay [5], in assay [6] and in [7] was over 20 µM throughout. The MIC in assay [8] and in assay [9] was over 20 µM each time.
With `CC(C)(C)NC(=O)[C@@H]1C[C@@H]2CCCC[C@@H]2CN1C[C@@H](O)[C@H](Cc1ccccc1)NC(=O)[C@H](CC(N)=O)NC(=O)c1ccc2ccccc2n1`, the CC50 in assay [1] was over 20 µM. The MIC in assay [2], in [3], in [4], in assay [5], in assay [6] and in [7] was over 20 µM in each case. Moreover, the MIC in [8] and in assay [9] was over 20 µM in each case.
On to `Nc1c(C(=O)NCc2ccco2)c2nc3ccccc3nc2n1CCN1CCCCC1`, for which the CC50 in assay [1] was over 20 µM. Also, the MIC in assay [2], in assay [3], in assay [4], in [5], in assay [6] and in [7] was over 20 µM in each case. Further, the MIC in assay [8] and in assay [9] was over 20 µM in each case.
As for `Oc1ccc(NCc2ccccc2OCc2ccccc2)cc1`, in [1], the CC50 was over 20 µM. For the same compound, the MIC in assay [2], in assay [3], in assay [4], in assay [5], in assay [6] and in assay [7] was over 20 µM throughout. Further, the MIC in assay [8] and in assay [9] was over 20 µM throughout.
`O=C(Nc1ccc(N2CCN(C(=O)c3ccccc3)CC2)cc1)c1ccc2c(c1)OCO2`: the CC50 in assay [1] is over 20 µM. Further, the MIC in [2], in assay [3], in assay [4], in assay [5], in [6] and in assay [7] was over 20 µM in each case. Besides, the MIC in [8] and in [9] was over 20 µM each time.
On to `O=C1NC(=S)N/C1=C\c1cc(Br)cc(Br)c1O`, for which the CC50 in [1] is over 20 µM. The MIC was 20 µM (≈ 7.56 µg/mL) in assay [2]; over 20 µM in assay [3]; over 20 µM in [4]; over 20 µM in assay [5]; over 20 µM in assay [6]; over 20 µM in [7]. Further, the MIC in assay [8] and in assay [9] was over 20 µM each time.
Turning to `Cc1ccc(Oc2ccccc2-c2csc(N=C3NCCCN3)n2)c(C)c1` [ABAFUNGIN], the CC50 in assay [1] was over 20 µM. In addition, the MIC in assay [2], in assay [3], in assay [4], in [5], in assay [6] and in assay [7] was over 20 µM in each case. The figures for the MIC in [8] and in [9] were over 20 µM and 0.312 µM (≈ 0.118 µg/mL), respectively.
On to `Cc1[nH]c2ccccc2c1CCNCc1ccc(/C=C/C(=O)NO)cc1` [PANOBINOSTAT], for which the CC50 in [1] is over 20 µM. Moreover, the MIC in assay [2], in assay [3], in assay [4], in assay [5], in [6] and in assay [7] was over 20 µM each time. Further, the MIC in assay [8] and in assay [9] was over 20 µM each time.
Regarding `Cc1c(CN(C)C(=O)/C=C/c2cnc3c(c2)C(C)(C)C(=O)N3)oc2ccccc12`, the CC50 in [1] was over 20 µM. In addition, the MIC in assay [2] was over 20 µM; in assay [3] it was over 20 µM; in assay [4], 1.25 µM (≈ 0.487 µg/mL); in assay [5], over 20 µM; in [6] it was over 20 µM; in assay [7] it was over 20 µM. Further, the MIC in assay [8] and in [9] was over 20 µM in each case.
As to `CCc1oc2ccccc2c1C(=O)c1ccc(O)cc1` [BENZARONE], in assay [1], the half-maximal cytotoxic concentration (CC50) is over 20 µM. Also, the MIC in assay [2], in assay [3], in assay [4], in assay [5], in assay [6] and in [7] was over 20 µM throughout. The MIC in [8] and in [9] was over 20 µM each time.
As to `C[C@@]1(O)[C@H](O)[C@@H](CO)O[C@H]1n1ccc2c(N)ncnc21` [BETA-2'-C-METHYL-7-DEAZA-ADENOSINE], in assay [1], the CC50 is over 20 µM. The MIC in [2], in assay [3], in assay [4], in assay [5], in [6] and in [7] was over 20 µM throughout. In addition, the MIC in assay [8] and in assay [9] was over 20 µM each time.
With `O=C(CCCC(F)(F)F)N1CCC(c2nc(-c3nccs3)no2)CC1`, in assay [1], the 50% cytotoxic concentration (CC50) was over 20 µM. For the same compound, the MIC in assay [2], in assay [3], in assay [4], in assay [5], in assay [6] and in assay [7] was over 20 µM each time. Also, the MIC in assay [8] and in [9] was over 20 µM in each case.
